The values below come from ChEMBL document CHEMBL1152983, “Substitution of the arginine/leucine residues in apidaecin Ib with peptoid residues: effect on antimicrobial activity, cellular uptake, and proteolytic degradation” (J Med Chem, 2009).

One may read the MIC as the lowest concentration found to suppress growth. Lower therefore signals inhibition by little substance.

In brackets after ≈: the same amount, converted by molar mass. Non-standard residues stand in square brackets, D forms with d. Residues, ends and D or L forms follow the SMILES beside them. Gly(N-(CH2)3-guanidino) = N=C(N)NCCCNCC(=O)O

For data set [1], the system named is Salmonella enterica subsp. enterica. As to the kind of experiment: Antimicrobial activity against Salmonella enteritidis PD1 after 18 hrs by broth microdilution susceptibility test. Type of data set: functional, Salmonella enterica subsp. enterica serovar Enteritidis. To be noted: PD1, 18 h.
Data set [2] concerns Escherichia coli. Put plainly: Antimicrobial activity against Escherichia coli O18K1H7 after 18 hrs by broth microdilution susceptibility test. It is filed as functional. To be noted: O18K1H7, 18 h. For orientation: Broth dilution looks for growth in wells or tubes with falling amounts of substance.
Data set [3] has as its system Escherichia coli. Put plainly: Antimicrobial activity against Escherichia coli ATCC 25922 after 18 hrs by broth microdilution susceptibility test. Type of data set: functional. As to conditions: ATCC 25922, 18 h; call rule not given here.
Data set [4] relates to Salmonella enterica subsp. enterica. Put plainly: Antimicrobial activity against Salmonella Typhimurium ATCC 14028 after 18 hrs by broth microdilution susceptibility test. It is filed as functional, Salmonella enterica subsp. enterica serovar Typhimurium. To be noted: ATCC 14028, 18 h.
Data set [5] in a line: Toxicity in human erythrocytes assessed as hemolytic activity at 30 uM after 60 mins. Type of data set: cell-based, Erythrocyte. As to conditions: read-out: Activity.
Data set [6] concerns Escherichia coli. Put plainly: Antimicrobial activity against Escherichia coli ML35 after 18 hrs by broth microdilution susceptibility test. Type of data set: functional. As to conditions: ML35, 18 h.
Data set [7] is described as follows: Membrane permeabilization in eukaryotic membrane model consisting of single unilamellar vesicle of L-alpha-phosphatidylcholine-cholesterol assessed as 5(6)-carboxyfluorescein release at high peptide-to-lipid ratio after 20 mins by fluorescence assay. Type of data set: ADME, cell membranes.
Data set [8] can be described thus: Membrane permeabilization in eukaryotic membrane model consisting of single unilamellar vesicle of L-alpha-phosphatidylcholine-cholesterol assessed as 5(6)-carboxyfluorescein release at high peptide-to-lipid ratio after 50 mins by fluorescence assay. It is filed as ADME, cell membranes.
In another data set the test system is Klebsiella pneumoniae. Put plainly: Antimicrobial activity against Klebsiella pneumoniae 22 after 18 hrs by broth microdilution susceptibility test. Type of data set: functional. To be noted: Klebsiella pneumoniae, 22, 18 h.
Data set [9] deals with Salmonella enterica subsp. enterica. As to the kind of experiment: Antimicrobial activity against Salmonella enteritidis D5 after 18 hrs by broth microdilution susceptibility test. Type of data set: functional, Salmonella enterica subsp. enterica serovar Enteritidis. As to conditions: D5, 18 h.
Data set [10] is described as follows: Toxicity in human erythrocytes assessed as hemolytic activity at 300 uM after 60 mins. It is filed as cell-based, Erythrocyte. To be noted: read-out: Activity.
A short description of data set [11]: Chemical stability assessed as compound degradation at 2 mg/mL after 24 hrs by HPLC and ESI-MS analysis in presence of trypsin. Type of data set: physicochemical. As to conditions: isolated protein.
A short description of data set [12]: Chemical stability assessed as compound degradation at 2 mg/mL within 30 mins by HPLC and ESI-MS analysis in presence of trypsin. It is filed as physicochemical. To be noted: isolated protein, 0.5 h.

Regarding `CC[C@H](C)[C@H](NC(=O)[C@H](Cc1ccc(O)cc1)NC(=O)[C@@H](NC(=O)[C@@H]1CCCN1C(=O)[C@H](CCCNC(=N)N)NC(=O)[C@H](CC(N)=O)NC(=O)[C@H](CC(N)=O)NC(=O)CN)C(C)C)C(=O)N1CCC[C@H]1C(=O)N[C@@H](CCC(N)=O)C(=O)N1CCC[C@H]1C(=O)N[C@@H](CCCNC(=N)N)C(=O)N1CCC[C@H]1C(=O)N1CCC[C@H]1C(=O)N[C@@H](Cc1cnc[nH]1)C(=O)N1CCC[C@H]1C(=O)N(CCCNC(=N)N)CC(=O)N[C@@H](CC(C)C)C(=O)O` (H-GNNRPVYIPQPRPPHP[Gly(N-(CH2)3-guanidino)]L-OH), the minimum inhibitory concentration (MIC) (in data set [1]; against Escherichia coli [2]; in the data set with Escherichia coli [3]; in [4]; in the data set on Escherichia coli [6]; against Klebsiella pneumoniae) was above 128 µM in each case. This molecule registered a minimum inhibitory concentration (MIC) in data set [9] above 128 µM. Besides, the hemolysis at 1 h, 30 µM in data set [5] is at most 2%. In addition, the Activity result in data set [7] and in data set [8] was “Not Active” each time. Also, the hemolysis at 1 h, 300 µM in data set [10] stood at 0.44%. In addition, in data set [11], the Stability result is reported as “Stable”.
For `CC[C@H](C)[C@H](NC(=O)[C@H](Cc1ccc(O)cc1)NC(=O)[C@@H](NC(=O)[C@@H]1CCCN1C(=O)[C@H](CCCNC(=N)N)NC(=O)[C@H](CC(N)=O)NC(=O)[C@H](CC(N)=O)NC(=O)CN)C(C)C)C(=O)N1CCC[C@H]1C(=O)N[C@@H](CCC(N)=O)C(=O)N1CCC[C@H]1C(=O)N[C@@H](CCCNC(=N)N)C(=O)N1CCC[C@H]1C(=O)N1CCC[C@H]1C(=O)N[C@@H](Cc1cnc[nH]1)C(=O)N1CCC[C@H]1C(=O)N[C@@H](CCCNC(=N)N)C(=O)N[C@@H](CC(C)C)C(=O)O` [APIDAECIN], the MIC is 8 µM (≈ 16.9 µg/mL) in data set [1]; 8 µM (≈ 16.9 µg/mL) with Escherichia coli [2]; 8 µM (≈ 16.9 µg/mL) in the data set on Escherichia coli [3]; 4 µM (≈ 8.43 µg/mL) in data set [4]; 8 µM (≈ 16.9 µg/mL) in the data set on Escherichia coli [6]; 64 µM (≈ 135 µg/mL) in the data set on Klebsiella pneumoniae. For the same molecule, the MIC in data set [9] came to 8 µM (≈ 16.9 µg/mL). The Stability entry in data set [12] was “Unstable”. Moreover, in data set [5], the hemolysis at 1 h, 30 µM was at most 2%. The Activity result in data set [7] and in [8] was “Not Active” throughout. Further, the hemolysis at 1 h, 300 µM in data set [10] was found to be 1.19%.
